How the values were obtained:
Assay type in all cases: toxicity, cell-based
HEK-293T = test: Incucyte cell viability with HEK293T; details: human, 10 µM, compound concentration 10 uM
Fibroblast = test: Incucyte cell viability with human fibroblast; details: 10 µM, compound concentration 10 uM
U2OS = test: Incucyte cell viability with U2OS; details: human, 10 µM, compound concentration 10 uM
Note: unitless GR value; below 1 slowed growth and below 0 cell loss.

Row | Compound | Growth Rate (HEK-293T; 0 h, replicate number 1) | Growth Rate (Fibroblast; 0 h, replicate number 1) | Growth Rate (Fibroblast; 6 h, replicate number 2) | Growth Rate (Fibroblast; 12 h, replicate number 2) | Growth Rate (Fibroblast; 18 h, replicate number 1) | Growth Rate (U2OS; 0 h, replicate number 1) | Growth Rate (U2OS; 0 h, replicate number 2) | Growth Rate (U2OS; 6 h, replicate number 1) | Growth Rate (U2OS; 6 h, replicate number 2) | Growth Rate (U2OS; 12 h, replicate number 1) | Growth Rate (U2OS; 12 h, replicate number 2) | Growth Rate (U2OS; 18 h, replicate number 1) | Growth Rate (U2OS; 18 h, replicate number 2) | Growth Rate (U2OS; 24 h, replicate number 1) | Growth Rate (U2OS; 24 h, replicate number 2) | Growth Rate (HEK-293T; 0 h, replicate number 2) | Growth Rate (HEK-293T; 24 h, replicate number 2) | Growth Rate (Fibroblast; 0 h, replicate number 2) | Growth Rate (Fibroblast; 6 h, replicate number 1) | Growth Rate (HEK-293T; 6 h, replicate number 2) | also measured
1 | COc1ccc(OC)c(-c2ccc(NC(=O)c3ccncc3F)cc2)c1 | -0.77 | -0.06 | -0.75 | 0.93 | -0.35 | -0.54 | -0.01 | 0.57 | 0.63 | 0.56 | 0.84 | 0.74 | 0.87 | 0.87 | 0.91 |  |  |  |  |  | Growth Rate (Fibroblast; 24 h, replicate number 2): 0.92
2 | COc1cc(N2CCN(C)CC2)ccc1Nc1nccc(-c2cn(C)c3cnccc23)n1 | -0.65 |  |  |  |  |  | -0.71 |  |  |  |  |  |  | 0.75 |  | -0.69 | 0.8 | 0.04 | -1 |  | 
3 | O=C(NS(=O)(=O)N1CCC1)c1cc(C2CC2)c(OCC23CC4CC(CC(C4)C2)C3)cc1F | 0.85 | 0.19 | -1 | -0.01 | 0.03 | -0.5 | -0.98 | 0.59 | 0.7 |  | 0.73 |  | 0.8 |  | 0.87 | 0.39 | 0.92 |  | 0.24 | 0.7 | Growth Rate (HEK-293T; 6 h, replicate number 1): 0.69; Growth Rate (HEK-293T; 12 h, replicate number 1): 0.88; Growth Rate (HEK-293T; 18 h, replicate number 1): 0.87; Growth Rate (HEK-293T; 18 h, replicate number 2): 0.99; Growth Rate (HEK-293T; 24 h, replicate number 1): 0.8; Growth Rate (Fibroblast; 18 h, replicate number 2): 0.31; Growth Rate (Fibroblast; 24 h, replicate number 1): 0.81; Growth Rate (Fibroblast; 24 h, replicate number 2): 0.37
4 | CN(Cc1cccc(F)c1CNc1cc(F)c(S(=O)(=O)Nc2cscn2)c(F)c1)C(C)(C)C | 0.6 |  |  |  | 0.65 |  |  | 0.37 | 0.58 | 0.72 | 0.86 | 0.89 | 0.97 | 0.9 | 0.96 | 0.65 |  | -0.81 |  |  | 
5 | CN1CCN(c2nc(N)c3ccccc3n2)CC1 | 0.4 |  |  | 0.67 | 0.78 |  | -0.89 | 0.43 | 0.36 | 0.81 | 0.53 | 0.76 |  | 0.77 | 0.83 | 0.8 |  |  | 0.45 | 0.91 | Growth Rate (Fibroblast; 12 h, replicate number 1): -1
6 | Cl.Cl.c1ccc2c(-c3cnn4cc(-c5ccc(N6CCNCC6)cc5)cnc34)ccnc2c1 | -0.16 |  |  |  |  | -0.92 |  | -0.9 | -0.64 | -0.48 | -0.46 | -0.35 | -0.37 | -0.32 |  |  | -0.38 | -0.67 | -0.76 | -0.92 | Growth Rate (HEK-293T; 12 h, replicate number 2): -0.66; Growth Rate (HEK-293T; 18 h, replicate number 2): -0.48; Growth Rate (Fibroblast; 12 h, replicate number 1): -1
7 | COc1cc2ncnc(Nc3ccc(Oc4ccccc4)cc3C)c2cc1OC.Cl | -0.14 | -0.71 |  |  |  | 0.5 | -0.92 |  | 0.35 |  | 0.74 |  |  |  |  | -0.45 |  | -0.78 | 0.3 |  | Growth Rate (Fibroblast; 12 h, replicate number 1): -1
8 | NC(=O)c1ccc(-c2nc(-c3ccc4c(c3)OCO4)c(-c3ccccn3)[nH]2)cc1.O | 0.76 | -0.21 | -0.54 |  | -0.48 | -0.57 | -0.09 | 0.96 |  | 0.79 |  | 0.95 | 0.79 | 0.94 |  |  |  |  | -0.01 |  | 
9 | CC(Sc1nc2c(cnn2-c2cccc(Cl)c2)c(=O)[nH]1)C(N)=O (stereo not given) | 1 |  |  |  | 0.53 |  |  | -0.28 | 0.38 | 0.5 | 0.69 | 0.85 | 0.68 | 0.84 | 0.85 | 0.66 |  | -1 | 0.44 |  | 

— ChEMBL document CHEMBL5303304, “EUbOPEN Chemogenomics Library - IncuCyte” (2023)
